{
  "source": "patent US11287416B2",
  "about": "“Cancer” (NEURO-BIO LTD, priority 2016, dated 2022)",
  "type_in_all_cases": "cell-based",
  "key": {"[1]": {"system": "AChE activity, PC12 cells", "conditions": "for protection against T30-induced AChE activity: T30 1 μM combined with blocker", "description": "AChE activity was measured using the Ellman reagent that measures the presence of thiol groups as a result of AChE activity. In the case of the G4 experiment, AChE (G4) activity was tested alone and also together with either NBP14 or Tri peptides. PC12 cells were plated the day before the experiment as for the cell viability assay. Cells were treated with T30 (1 μM) alone or combined with NBP14 or Tri peptide (0.5 μM). After treatment, supernatant (perfusate) of each treatment was collected and 25 μL from is each condition were added to a new flat bottomed 96 well plate followed by the addition of 175 μl of Ellman reagent (Solution A: KH2PO4 139 mM and K2HPO4 79.66 mM, pH 7.0; solution B (substrate): Acetylthiocholine Iodide 11.5 mM; Solution C (Reagent): 5,5′-dithiobis (2-nitrobenzoic acid) 8 mM and NaHCO15 mM). The Ellman reagent was prepared as a mixture of the 3 solutions in a ratio 33(A):3(B):4(C). Absorbance measurements were taken for an interval of 60 minutes across experiments at 405 nm in a Vmax plate reader (Molecular devices, Wokingham, UK).\n(§1) In each of the different cell techniques, the statistics analysis was performed with the average of the percentage values of 3 or more experiments. Comparisons between multiple treatment groups and the same control were performed by one-way analysis of variance (ANOVA) and Tukey's post-hoc tests using GraphPAD Instat (GraphPAD software, San Diego, Calif.). Statistical significance was taken at a p value<0.05."}, "[2]": {"system": "alpha7 nicotinic receptors, PC12 cells", "assay": "Calcium fluorometry (Fluo-8), PNU282987-induced calcium influx in PC12 cells", "conditions": "PNU282987 1 μM; for protection against T30-induced calcium influx: T30 combined with blocker", "description": "PC12 cells were plated in 200 μl of Dulbecco's Modified Eagle's medium (DMEM) plus 2 mM of L-glutamine medium the day before the experiment in 96 well plates. On the day of the experiment, the Fluo-8 solution (Abcam) was prepared as described by the provider by adding 20 μl of Fluo-8 in the assay buffer that contains 9 ml of Hank's Balanced Salt Solution (HBSS) and 1 ml of pluronic F127 Plus. Subsequently, 100 μl of growth medium was removed and 100 μl of Fluo-8 solution were added. Treatments with T30 in conjunction with NBP14 or Tri peptides were added and incubated for 30 minutes in the incubator and 30 minutes room temperature. After 1 h, the plate was placed in the fluorescence plate reader (Fluostar, Optima, BMG Labtech, Ortenberg, Germany). Before reading the fluorescence, PNU282987 1 μM, an alpha7 specific agonist of the nicotinic receptors, was prepared and placed in the Fluostar injector. For each well, the reading was formed by a basal fluorescence reading followed by PNU282987 injection that induced an increase of calcium via nicotinic receptors.\nas §1"}, "rat basal forebrain": {"system": "rat basal forebrain", "assay": "voltage-sensitive dye imaging (VSDI) on brain slices", "conditions": "for magnitude (summed fluorescence) of evoked responses, compound alone: 4 μM in perfusate, no T30, rat basal forebrain slices", "description": "Male Wistar rats (14 days old) were anaesthetised using isoflurane ([…], 100% w/w). Isoflurane was applied to the cotton bed at the bottom of an anaesthetic chamber (glass box 20×15×15 cm) where rats were then placed for approximately 45 s until complete anaesthesia was reached. The hind paw of each anaesthetised rat was pinched to check for the appropriate depth of anaesthesia. Upon confirmation of anaesthesia, rats were quickly decapitated, with the brain being quickly removed and immersed in ice cold oxygenated ‘slicing’ artificial cerebrospinal fluid (aCSF in mmol: 120 NaCl, 5 KCL, 20 NaHCO3, 2.4 CaCl2 2 MgSO4, 1.2 KH2PO4, 10 glucose, 6.7 HEPES salt and 3.3 HEPES acid; pH=7.1). Coronal slices (400 μm thick) were then taken from a block of brain containing the basal forebrain, namely the MS-dBB complex (between +9.20 and +9.48 mm Interaural and +0.48 and +0.2 mm Bregma, FIG. 4A) and the somatosensory barrel field cortex (SiBF, between +8.08 and +7.20 mm Interaural and −0.92 mm and −1.80 mm Bregma) (Paxinos and Watson, 1998) using a Vibratome (Leica VT1000S). Slices were then transferred to a bubbler pot containing oxygenated aCSF at room temperature (recording aCSF in mmol: 124 NaCl, 5 KCL, 20 NaHCO3, 2.4 CaCl2 2 MgSO4, 1.3 KH2PO4, 10 glucose; pH=7.4) which was identical to that used in VSDI (voltage sensitive dye imaging) recording. Slices were then left for approximately 1-1.5 hours before preparing them for VSD staining.\nSlices were placed in a dark, high humidity chamber filled with aCSF bubbled with 95% O2, 5% CO2. Once there, the dye solution (4% 0.2 mM styryl dye pyridinium 4-[2-[6-(dibutylamino)-2-napthalenyl]-ethenyl]-1-(3-sulfopropyl)hydroxide(Di-4-NEPPS), Invitrogen, Paisley, UK in 48% aCSF, 48% foetal bovine serum, 3.5% DMSO and 0.4% cremophore EL) (Tominaga et al., 2000) was applied to the slices for 20-25 minutes before being transferred back to a bubbler pot containing oxygenated aCSF kept at room temperature for 30 minutes.\nWhen starting the VSDI recordings, slices were placed in the recording bath on a small piece of filter paper to allow the flow of oxygenated aCSF on the underside of the slice and in order to keep it alive. The slice was then weighed down by a home-made plastic grid that was placed on top of the slice. The perfusing bath solution was heated to 30±1° C. by a stage heater. A concentric bipolar stimulating electrode (FHC, Maine, USA) was placed in the ventral diagonal band of the basal forebrain with stimulation being set to 30V. For the acquisition of VSD data, 2 dimensional images, equivalent to 88×60 pixels, were recorded using the MiCamo2 High Resolution camera (Brain Vision, Japan) with BV_Analyze imaging software. Acquisition of images was coupled to Spike2 V4.23 software (CED Ltd, Cambridge, UK) in order to align the image capture with the stimulation protocol (every 28 s with 30 repeats) via the Micro 1401 MkII. (CED Ltd, Cambridge, UK). Light was generated using an Osram halogen xenophot 64634 HLX EFR Display/Optic lamp and was filtered to emit green (530±10 nm) light using a MHF-G150LR (Moritex Corporation) coupled to the MiCamo2 High resolution imaging system and filtered the emitted fluorescence through a >590 nm high pass filter.\nAll drug and peptide stocks were prepared in frozen aliquots prior to experiments. For the production of perfusion solutions, stock solutions were thawed and added to recording aCSF as appropriate and bath applied at a constant rate of 1.5 ml/min perfusion using the Minipulse 3 peristaltic pump (Gilson Scientific Ltd., Bedfordshire, UK)."}, "astroglia": {"system": "astroglia", "assay": "cell proliferation assay (trophic-toxic effects)", "conditions": "for toxic effect in cell proliferation assay: high concentration, 10 μM"}, "[3]": {"conditions": "co-perfusion 4 μM blocker with 2 uM T30"}},
  "note": "“Also recorded” adds a separate entry of the source. Square brackets hold non-standard residues; d marks the D form. Peptide text beside a SMILES is read from it. Bpa = N[C@@H](Cc1ccc(C(=O)c2ccccc2)cc1)C(=O)O; Phe(4-NH2) = Nc1ccc(C[C@H](N)C(=O)O)cc1; hArg = N=C(N)NCCCC[C@H](N)C(=O)O",
  "data": [
    {"compound": "CC(=O)N[C@@H](Cc1ccc2ccccc2c1)C(=O)N[C@@H](Cc1ccc(N)cc1)C(=O)N[C@@H](Cc1c[nH]c2ccccc12)C(N)=O", "note": "[Tri02] (HELM PEPTIDE1{[ac].[O=C([C@H](Cc1ccc2ccccc2c1)N[*:1])[*:2]].[Nc1ccc(C[C@H](N[*:1])C(=O)[*:2])cc1].W.[am]}$$$$V2.0)", "values": [
      {"measurement": "protection against T30-induced AChE activity", "setting": "[1]", "value": "protects against the toxic effects of T30"},
      {"measurement": "protection against T30-induced calcium influx", "setting": "[2]", "value": "protects against the toxic effects of T30"},
      {"measurement": "magnitude (summed fluorescence) of evoked responses, compound alone", "setting": "rat basal forebrain", "value": "small alterations"},
      {"measurement": "magnitude (summed fluorescence) of evoked responses, compound alone", "setting": "rat basal forebrain; listed as Triol", "value": "recapitulates results seen with application of 4 μM NBP14"},
      {"measurement": "blocking of T30-induced effects on basal forebrain activity", "setting": "rat basal forebrain; [3]", "value": "not found to protect against T30-induced deviations from baseline; also recorded: some efficacy in blocking those T30-induced deviation"}
    ]},
    {"compound": "CC(=O)N[C@@H](Cc1ccc(C(=O)c2ccccc2)cc1)C(=O)N[C@@H](CCCCNC(=N)N)C(=O)N[C@@H](Cc1ccc(N)cc1)C(N)=O", "note": "[Tri04] (Ac-[Bpa]-[hArg]-[Phe(4-NH2)]-NH2)", "values": [
      {"measurement": "protection against T30-induced calcium influx", "setting": "[2]", "value": "protects the toxic effects of T30 by reducing calcium influx"},
      {"measurement": "blocking of T30-induced effects on basal forebrain activity", "setting": "rat basal forebrain; co-perfusion 2 μM blocker with 2 μM T30, n=29", "value": "significant effect on basal forebrain population activity; also recorded: reversal of the inhibitory effect of T30; also recorded: increase in network activity; also recorded: protective role"},
      {"measurement": "blocking of T30-induced effects on basal forebrain activity", "setting": "rat basal forebrain; [3]", "value": "totally block the T30-induced effects; also recorded: recapitulates results previously seen with the application of 4 μM NBP14; also recorded: significant effect reversing T30 activity"}
    ]},
    {"compound": "AEFHRWSSYMVHWK (listed as Homo sapiens) [Compound T14, toxic 14 amino acid peptide from the C-terminus of acetylcholinesterase]", "values": [
      {"measurement": "cell proliferation, trophic effect on astroglia", "setting": "astroglia; 1 pM peptide", "value": "96±5", "unit": "%"},
      {"measurement": "cell proliferation, trophic effect on astroglia", "setting": "astroglia; 10 pM peptide", "value": "121±8", "unit": "%"},
      {"measurement": "toxic effect in cell proliferation assay", "setting": "astroglia", "value": "equal toxic effects"}
    ]},
    {"compound": "KAEFHRWSSYMVHWKNQFDHYSKQDRCSDL (listed as Homo sapiens) [Compound T30, Acetylcholinesterase (AChE) C-terminus 30 amino acid peptide]", "values": [
      {"measurement": "cell proliferation, trophic effect on astroglia", "setting": "astroglia; 1 pM peptide", "value": "120±4", "unit": "%"},
      {"measurement": "cell proliferation, trophic effect on astroglia", "setting": "astroglia; 10 pM peptide", "value": "135±9", "unit": "%"},
      {"measurement": "toxic effect in cell proliferation assay", "setting": "astroglia", "value": "equal toxic effects"},
      {"measurement": "AChE activity", "setting": "[1]; peptide alone, 1 μM", "value": "increases"},
      {"measurement": "calcium influx", "setting": "[2]; peptide alone, 1 μM", "value": "increases"},
      {"measurement": "effect of T30 alone on evoked VSDI signal", "setting": "rat basal forebrain; T30 2 uM, basal forebrain of p14 rats", "value": "greatest deviation; also recorded: net inhibition"}
    ]},
    {"compound": "c[AEFHRWSSYMVHWK] (head-to-tail cyclised; listed as Homo sapiens) [NBP14]", "values": [
      {"measurement": "protection against T30-induced AChE activity", "setting": "[1]", "value": "protects against these toxic effects"},
      {"measurement": "protection against T30-induced calcium influx", "setting": "[2]", "value": "protects against these toxic effects"},
      {"measurement": "magnitude (summed fluorescence) of evoked responses, compound alone", "setting": "rat basal forebrain", "value": "small, non-significant alterations"},
      {"measurement": "blocking of T30-induced effects on basal forebrain activity", "setting": "rat basal forebrain; [3]", "value": "totally block the T30-induced effects"}
    ]}
  ]
}
